In assay [1] the test system is P. falciparum female gametocytes. Put plainly: P. falciparum Dual Gamete Formation Assay (PfDGFA), female readout (Pfs25-positive female gametes). Particulars: for Average inhibition female (%): average of replicates; for % inhibition female (individual replicates) R1: replicate R1; for % inhibition female (individual replicates) R3: replicate R3; for % inhibition female (individual replicates) R4: replicate R4. The assay is classed as cell-based, Plasmodium falciparum NF54. In a few lines:
(§1)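 First, day-14 P. falciparum NF54 gametocytes receive compound for 24 h at 37°C in 1% O2/3% CO2. Next, ookinete medium with Cy3 anti-Pfs25 triggers gametogenesis at 28°C and male exflagellation is imaged. Finally, after 24 h in the dark, Cy3-labelled females are imaged.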

Assay [2] relates to P. falciparum male gametocytes. Kind of assay: P. falciparum Dual Gamete Formation Assay (PfDGFA), male readout (exflagellation). It is filed as cell-based, Plasmodium falciparum NF54. The following applies: for Average inhibition male (%): average of replicates; for % inhibition male (individual replicates) R1: replicate R1; for % inhibition male (individual replicates) R3: replicate R3; for % inhibition male (individual replicates) R4: replicate R4; for Activity: hit = >50% inhibition in male or female readout in at least 3 replicates, 0 = no class assigned. In a few lines: as §1

Setting [3] is: 2µM, 24h preincubation with gametocytes.
Setting [4] is: 2µM, 24h preincubation with gametocytes prior to induction of gametogenesis.
The mark [5] stands for this setting: 2µM, 24h preincubation, hits selected on >50% inhibition in the female readout across replicates.
Setting [6] is: 2µM, 24h preincubation, hits selected on >50% inhibition in the male readout across replicates.
[7] abbreviates: PfDGFA at 2µM, 24h preincubation.
Where [8] appears, read: PfDGFA at 2µM, 24h preincubation with gametocytes prior to induction of gametogenesis.

As to `C#CCOc1ccc2ccccc2c1CNCCCCCCNCc1c(OCC#C)ccc2ccccc12.CS(=O)(=O)O` [TCMDC-137838], in assay [1] (setting [3]), the “Average inhibition female (%)” value is reported as 57.5%, the “% inhibition female (individual replicates) R1” value was 37.7%, the “% inhibition female (individual replicates) R3” value was determined as 36.7% and the “% inhibition female (individual replicates) R4” value is 72.5%. In assay [2] (setting [3]), the “Average inhibition male (%)” value is 97.5%, the “% inhibition male (individual replicates) R1” value is on record as 98.4%, the “% inhibition male (individual replicates) R3” value is recorded as 92.7% and the “% inhibition male (individual replicates) R4” value is on record as 100.9%.

For `COc1cc2ccccc2c(OC)c1CCNCCCCNCCc1c(OC)cc2ccccc2c1OC.CS(=O)(=O)O` [TCMDC-137842], in assay [1] (setting [4]), the “Average inhibition female (%)” value came out at 13.3%, the “% inhibition female (individual replicates) R1” value was 16.6%, the “% inhibition female (individual replicates) R3” value is recorded as -7.2% and the “% inhibition female (individual replicates) R4” value amounted to 21.8%. Also, in assay [1] (setting [5]), the HitlevelF is recorded as 0. In assay [2] (setting [4]), the “Average inhibition male (%)” value was 40.8%, the “% inhibition male (individual replicates) R1” value is given as 35.9%, the “% inhibition male (individual replicates) R3” value is given as -0.8% and the “% inhibition male (individual replicates) R4” value was found to be 68.2%. For the same compound, the HitlevelM in assay [2] (setting [6]) came out at 2. In assay [2] (setting [7]), this compound gave an Activity of 0.

`C/C=C/COc1ccc2ccccc2c1CNCCCCCCCCNCc1c(OC/C=C/C)ccc2ccccc12.CS(=O)(=O)O.O` [TCMDC-137844]: in assay [1] (setting [4]), the “Average inhibition female (%)” value is 23.4%, the “% inhibition female (individual replicates) R1” value is 25.6%, the “% inhibition female (individual replicates) R3” value is 6.4% and the “% inhibition female (individual replicates) R4” value stood at 40.3%. The same compound had a HitlevelF in assay [1] (2µM, 24h preincubation, number of replicates with >50% inhibition in the female readout) of 0. For the same compound, in assay [2] (setting [4]), the “Average inhibition male (%)” value was determined as 25.4%, the “% inhibition male (individual replicates) R1” value is given as 38.1%, the “% inhibition male (individual replicates) R3” value came out at 0.24% and the “% inhibition male (individual replicates) R4” value came to 61.8%. The HitlevelM in assay [2] (2µM, 24h preincubation, number of replicates with >50% inhibition in the male readout) is listed as 1.

With `CC(C)c1cc2c(ccc3nc(N)nc(N)c32)[nH]1` [TCMDC-137847], in assay [1] (setting [4]), the “Average inhibition female (%)” value was 11.1%, the “% inhibition female (individual replicates) R1” value was found to be 19.6%, the “% inhibition female (individual replicates) R3” value is on record as 6.0% and the “% inhibition female (individual replicates) R4” value stood at 11.3%. For the same compound, the HitlevelF in assay [1] (setting [5]) turned out to be 0. In assay [2] (setting [4]), the “Average inhibition male (%)” value is given as 0.8%, the “% inhibition male (individual replicates) R1” value was determined as 37.4%, the “% inhibition male (individual replicates) R3” value is reported as -19.2% and the “% inhibition male (individual replicates) R4” value is -31.8%. In assay [2] (setting [6]), this compound had a HitlevelM of 0. In assay [2] (setting [7]), this compound registered an Activity of 0.

On to `CCc1cc2c3c(N)nc(N)nc3ccc2n1CC` [TCMDC-137851], for which, in assay [1] (setting [4]), the “Average inhibition female (%)” value is recorded as 9.4%, the “% inhibition female (individual replicates) R1” value is 20.5%, the “% inhibition female (individual replicates) R3” value is on record as -5.1% and the “% inhibition female (individual replicates) R4” value worked out at 10.4%. For the same compound, the HitlevelF in assay [1] (setting [5]) was 0. In assay [2] (setting [4]), the “Average inhibition male (%)” value is recorded as -13.9%, the “% inhibition male (individual replicates) R1” value turned out to be 35.0%, the “% inhibition male (individual replicates) R3” value is recorded as -28.2% and the “% inhibition male (individual replicates) R4” value is recorded as -58.5%. In assay [2] (setting [6]), this compound yielded a HitlevelM of 0. In addition, the Activity in assay [2] (setting [7]) was found to be 0.

With `Cl.Nc1nc(N)c2c(ccc3c2cnn3S(=O)(=O)N2CCCC2)n1` [TCMDC-137852], in assay [1] (setting [8]), the “% inhibition female (individual replicates) R1” value is reported as 0.4%, the “% inhibition female (individual replicates) R3” value is recorded as -21.8% and the “% inhibition female (individual replicates) R4” value is recorded as -7.9%. Besides, the “Average inhibition female (%)” value in assay [1] (setting [7]) is on record as -7.0%. Also, in assay [2] (setting [8]), the “% inhibition male (individual replicates) R1” value was determined as 28.2%, the “% inhibition male (individual replicates) R3” value was -12.1% and the “% inhibition male (individual replicates) R4” value was -13.1%. Also, the “Average inhibition male (%)” value in assay [2] (setting [7]) is 5.0%.

Turning to `Cl.Nc1nc(N)c2c(ccc3nn(S(=O)(=O)N4CCCC4)cc32)n1` [TCMDC-137854], in assay [1] (setting [8]), the “% inhibition female (individual replicates) R1” value is on record as -6.1%, the “% inhibition female (individual replicates) R3” value is on record as 12.6% and the “% inhibition female (individual replicates) R4” value is -10.2%. The “Average inhibition female (%)” value in assay [1] (setting [7]) is -1.3%. For the same compound, in assay [2] (setting [8]), the “% inhibition male (individual replicates) R1” value came out at 39.1%, the “% inhibition male (individual replicates) R3” value stood at 32.8% and the “% inhibition male (individual replicates) R4” value came out at 30.1%. Also, the “Average inhibition male (%)” value in assay [2] (setting [7]) was determined as 33.2%.

In the case of `CCCn1cc2c(ccc3nc(N)nc(N)c32)n1` [TCMDC-137858], in assay [1] (setting [8]), the “% inhibition female (individual replicates) R1” value was determined as 9.1%, the “% inhibition female (individual replicates) R3” value was -22.2% and the “% inhibition female (individual replicates) R4” value is listed as 2.7%. Besides, the “Average inhibition female (%)” value in assay [1] (setting [7]) is -1.2%. Moreover, in assay [2] (setting [8]), the “% inhibition male (individual replicates) R1” value came out at 0.8%, the “% inhibition male (individual replicates) R3” value is reported as -0.8% and the “% inhibition male (individual replicates) R4” value is reported as -25.8%. In addition, the “Average inhibition male (%)” value in assay [2] (setting [7]) is on record as 1.4%.

`CC(C)n1cc2c(ccc3nc(N)nc(N)c32)n1` [TCMDC-137865]: in assay [1] (setting [8]), the “% inhibition female (individual replicates) R1” value came to 4.2%, the “% inhibition female (individual replicates) R3” value is -9.2% and the “% inhibition female (individual replicates) R4” value is -1.6%. In addition, the “Average inhibition female (%)” value in assay [1] (setting [7]) is on record as -0.07%. Also, in assay [2] (setting [8]), the “% inhibition male (individual replicates) R1” value came out at 12.4%, the “% inhibition male (individual replicates) R3” value is reported as -22.8% and the “% inhibition male (individual replicates) R4” value is recorded as -29.8%. The “Average inhibition male (%)” value in assay [2] (setting [7]) is recorded as -10.2%.

As for `Nc1nc(N)c2c(Cl)c(N3CCOCC3)ccc2n1` [TCMDC-137868], in assay [1] (setting [4]), the “Average inhibition female (%)” value was 8.8%, the “% inhibition female (individual replicates) R1” value was determined as 9.4%, the “% inhibition female (individual replicates) R3” value is on record as -3.6% and the “% inhibition female (individual replicates) R4” value is listed as -2.4%. The HitlevelF in assay [1] (setting [5]) was 0. For the same compound, in assay [2] (setting [4]), the “Average inhibition male (%)” value is -14.2%, the “% inhibition male (individual replicates) R1” value amounted to 5.7%, the “% inhibition male (individual replicates) R3” value was -9.7% and the “% inhibition male (individual replicates) R4” value is listed as -52.5%. In addition, the HitlevelM in assay [2] (setting [6]) is 0. In assay [2] (setting [7]), this compound yielded an Activity of 0.

As for `Cl.Nc1nc(N)c2c(ccc3c2ccn3C2CCCCC2)n1` [TCMDC-137871], in assay [1] (setting [4]), the “Average inhibition female (%)” value is on record as 10.6%, the “% inhibition female (individual replicates) R1” value was -11.4%, the “% inhibition female (individual replicates) R3” value is given as 35.4% and the “% inhibition female (individual replicates) R4” value came out at 4.9%. Further, in assay [1] (setting [5]), the HitlevelF is listed as 0. Also, in assay [2] (setting [4]), the “Average inhibition male (%)” value was 11.6%, the “% inhibition male (individual replicates) R1” value is given as 19.6%, the “% inhibition male (individual replicates) R3” value is on record as 1.6% and the “% inhibition male (individual replicates) R4” value is given as -3.1%. In assay [2] (setting [6]), the HitlevelM is listed as 0. The compound also gave an Activity in assay [2] (setting [7]) of 0.

As for `Cc1ccc2c(Cc3cnc(N)nc3N)cc(C)c(N)c2n1.Cl` [TCMDC-137878], in assay [1] (setting [8]), the “% inhibition female (individual replicates) R1” value stood at 1.9%, the “% inhibition female (individual replicates) R3” value amounted to 4.6% and the “% inhibition female (individual replicates) R4” value was 2.9%. The “Average inhibition female (%)” value in assay [1] (setting [7]) is -0.2%. In assay [2] (setting [8]), the “% inhibition male (individual replicates) R1” value is given as 10.8% and the “% inhibition male (individual replicates) R4” value was found to be 0.8%. Besides, the “Average inhibition male (%)” value in assay [2] (setting [7]) turned out to be 15.3%.

Consider `Cl.N=C(N)NN=Cc1c2ccc(Cl)cc2c(Cl)c2ccc(Cl)cc12` [TCMDC-137884], for which, in assay [1] (setting [3]), the “Average inhibition female (%)” value turned out to be 57.1%, the “% inhibition female (individual replicates) R1” value is reported as 33.5%, the “% inhibition female (individual replicates) R3” value came to 56.7% and the “% inhibition female (individual replicates) R4” value was determined as 75.9%. Also, in assay [2] (setting [3]), the “Average inhibition male (%)” value was determined as 92.6%, the “% inhibition male (individual replicates) R1” value is listed as 97.0%, the “% inhibition male (individual replicates) R3” value is listed as 80.2% and the “% inhibition male (individual replicates) R4” value is listed as 97.6%.

Consider `O=C(NCc1ccccc1[S+]([O-])c1ccccc1CO)C(F)(F)F` (stereo not shown) [TCMDC-137886], for which, in assay [1] (setting [8]), the “% inhibition female (individual replicates) R1” value is recorded as 9.6%, the “% inhibition female (individual replicates) R3” value is -29.2% and the “% inhibition female (individual replicates) R4” value worked out at 19.1%. Also, the “Average inhibition female (%)” value in assay [1] (setting [7]) is listed as 3.3%. In assay [2] (setting [8]), the “% inhibition male (individual replicates) R1” value turned out to be 18.6%, the “% inhibition male (individual replicates) R3” value is -28.2% and the “% inhibition male (individual replicates) R4” value is reported as -31.1%. The “Average inhibition male (%)” value in assay [2] (setting [7]) is -8.4%.

As for `Cl.Nc1ncc(Cc2cc(Cl)c(N)c3ncccc23)c(N)n1` [TCMDC-137889], in assay [1] (setting [8]), the “% inhibition female (individual replicates) R1” value was found to be 12.6%, the “% inhibition female (individual replicates) R3” value was -23.8% and the “% inhibition female (individual replicates) R4” value came to 5.5%. In assay [1] (setting [7]), the “Average inhibition female (%)” value is reported as -0.8%. Also, in assay [2] (setting [8]), the “% inhibition male (individual replicates) R1” value was 6.1%, the “% inhibition male (individual replicates) R3” value is on record as -28.8% and the “% inhibition male (individual replicates) R4” value was -13.1%. In assay [2] (setting [7]), the “Average inhibition male (%)” value was -7.9%.

(Values after article PMC10584170, “Machine learning-based phenotypic imaging to characterise the targetable biology of Plasmodium falciparum male gametocytes for the development of transmission-blocking antimalarials” (PLOS Pathogens, 2023).)
